pEC50: −log10 of the molar value. Where two headings read alike, the source gives them in different places.
Biological target: T1, human somatostatin receptor subtype 5 (Homo sapiens, UniProt P35346)
T1 construct: expressed in transfected cells
Assay: cAMP assay for SST5R (inhibition of cAMP in CHO-K1 cells)
Assay type: cell-based
Details: inhibition of cAMP via human SST5 receptor, read-out: SST5 potency
Outline: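 CHO-K1 cells stably expressing human SSTR5 were treated 20 min at 37 °C with compounds plus 1.6 μM NKH477 in HBSS, 0.5 mM HEPES pH 7.4, 0.1% BSA, 0.2 mM IBMX. Lysate cAMP measured by HTRF against a standard curve; EC50 from cAMP-versus-concentration plots.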

T1 sequence (P35346 whole entry): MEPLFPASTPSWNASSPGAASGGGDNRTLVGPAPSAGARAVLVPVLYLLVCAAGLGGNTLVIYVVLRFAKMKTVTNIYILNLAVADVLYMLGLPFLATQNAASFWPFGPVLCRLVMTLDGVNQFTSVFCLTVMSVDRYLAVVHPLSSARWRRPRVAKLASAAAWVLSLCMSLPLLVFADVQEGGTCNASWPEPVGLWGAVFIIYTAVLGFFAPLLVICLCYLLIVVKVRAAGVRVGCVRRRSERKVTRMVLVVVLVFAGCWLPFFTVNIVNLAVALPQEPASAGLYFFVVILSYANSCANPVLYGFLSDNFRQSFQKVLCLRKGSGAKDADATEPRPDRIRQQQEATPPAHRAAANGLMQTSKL

Row | Compound | pEC50 (Table A) | pEC50 (Table B)
1 | COc1ncc(C(=O)N[C@@H](C)C2CC2)c(N2CC[C@H](N)C2)c1-c1cc(F)cc(F)c1 [1-152, 4-[(3S)-3-aminopyrrolidin-1-yl]-N-[(1S)-1-cyclopropylethyl]-5-(3,5-difluorophenyl)-6-methoxypyridine-3-carboxamide] | > 8.00 | –
2 | C[C@]1(N)CCN(c2c(C(=O)NC3CCC(F)(F)CC3)cnc(C3CC3)c2-c2cc(F)cc(F)c2)C1 [1-281, 4-[(3S)-3-amino-3-methylpyrrolidin-1-yl]-6-cyclopropyl-N-(4,4-difluorocyclohexyl)-5-(3,5-difluorophenyl)pyridine-3-carboxamide] | > 8.00 | –
3 | CCNC(=O)c1cncc(-c2nc3c(C)cccc3[nH]2)c1N1CC[C@](C)(N)C1 [2-1, 4-[(3S)-3-amino-3-methylpyrrolidin-1-yl]-N-ethyl-5-(4-methyl-1H-1,3-benzodiazol-2-yl)pyridine-3-carboxamide] | 7.00 to 8.00 | –
4 | N[C@H]1CCN(c2c(C(=O)NC3CCC(F)(F)CC3)cnc(OCCCC(=O)O)c2-c2cc(F)cc(F)c2)C1 [1-205, 4-({4-[(3S)-3-aminopyrrolidin-1-yl]-5-[(4,4-difluorocyclohexyl)carbamoyl]-3-(3,5-difluorophenyl)pyridin-2-yl}oxy)butanoic acid] | > 8.00 | –
5 | Cc1cccc2[nH]c(-c3cncc(C(=O)NC45CCC(CC4)C5)c3N3CC[C@](C)(N)C3)nc12 [2-33, 4-[(3S)-3-amino-3-methylpyrrolidin-1-yl]-N-{bicyclo[2.2.1]heptan-1-yl}-5-(4-methyl-1H-1,3-benzodiazol-2-yl)pyridine-3-carboxamide] | > 8.00 | –
6 | C[C@]1(N)CCN(c2c(C(=O)N[C@H]3C[C@@H](F)C3)cncc2-c2cc(F)cc(F)c2)C1 [1-59, 4-[(3S)-3-amino-3-methylpyrrolidin-1-yl]-5-(3,5-difluorophenyl)-N-[cis-3-fluorocyclobutyl]pyridine-3-carboxamide] | > 8.00 | –
7 | N#Cc1cccc(-c2cncc(C(=O)NC3CCCCC3)c2N2CC[C@H](N)C2)c1 [1-7, 4-[(3S)-3-aminopyrrolidin-1-yl]-5-(3-cyanophenyl)-N-cyclohexylpyridine-3-carboxamide] | 6.00 to 7.00 | –
8 | C[C@H](NC(=O)c1cnc(C#N)c(-c2cnoc2)c1N1CC[C@](C)(N)C1)C1CC1 [1-134, 4-[(3S)-3-amino-3-methylpyrrolidin-1-yl]-6-cyano-N-[(1S)-1-cyclopropylethyl]-5-(1,2-oxazol-4-yl)pyridine-3-carboxamide] | > 8.00 | –
9 | N-(adamantan-1-yl)-3-[(3S)-3-amino-3-methylpyrrolidin-1-yl]-2-(3,5-difluorophenyl)pyridine-4-carboxamide [3-7] | 7.00 to 8.00 | –
10 | COCCNC(=O)c1cncc(-c2nc3c(C)cccc3[nH]2)c1N1CC[C@](C)(N)C1 [2-8, 4-[(3S)-3-amino-3-methylpyrrolidin-1-yl]-N-(2-methoxyethyl)-5-(4-methyl-1H-1,3-benzodiazol-2-yl)pyridine-3-carboxamide] | 7.00 to 8.00 | –
11 | Cc1ncc(C(=O)NC(CO)C2CC2)c(N2CC[C@](C)(N)C2)c1-c1cc(F)cc(F)c1 (stereo partly drawn) [1-224, 4-[(3S)-3-amino-3-methylpyrrolidin-1-yl]-N-(1-cyclopropyl-2-hydroxyethyl)-5-(3,5-difluorophenyl)-6-methylpyridine-3-carboxamide] | 7.00 to 8.00 | –
12 | CN(CC1CC1)C(=O)c1cnc(C#N)c(-c2cc(F)cc(F)c2)c1N1CC[C@](C)(N)C1 [1-218, 4-[(3S)-3-amino-3-methylpyrrolidin-1-yl]-6-cyano-N-(cyclopropylmethyl)-5-(3,5-difluorophenyl)-N-methylpyridine-3-carboxamide] | 6.00 to 7.00 | –
13 | CC(C)(NC(=O)c1cncc(-c2cc(F)cc(F)c2)c1N1CC[C@](C)(N)C1)C1CC1 [1-40, 4-[(3S)-3-amino-3-methylpyrrolidin-1-yl]-N-(2-cyclopropylpropan-2-yl)-5-(3,5-difluorophenyl)pyridine-3-carboxamide] | 7.00 to 8.00 | –
14 | C[C@H](NC(=O)c1cncc(-c2cncc(F)c2)c1N1CC[C@](C)(N)C1)C1CC1 [1-142, 4-[(3S)-3-amino-3-methylpyrrolidin-1-yl]-N-[(1S)-1-cyclopropylethyl]-5′-fluoro-[3,3′-bipyridine]-5-carboxamide] | > 8.00 | –
15 | COc1ncc(C(=O)N2CCCCC2)c(N2CC[C@H](N)C2)c1-c1cc(F)cc(F)c1 [1-235, (3S)-1-[3-(3,5-difluorophenyl)-2-methoxy-5-(piperidine-1-carbonyl)pyridin-4-yl]pyrrolidin-3-amine] | < 6.00 | –
16 | COc1ncc(C(=O)N[C@@H](C)C(F)(F)F)c(N2CC[C@](C)(N)C2)c1Br (single isomer, unassigned) [1-274] | < 6.00 | –
17 | C[C@]1(N)CCN(c2cc(C#N)ncc2C(=O)NC23CC(C2)C3)C1 [1-75, 4-[(3S)-3-amino-3-methylpyrrolidin-1-yl]-N-{bicyclo[1.1.1]pentan-1-yl}-6-cyanopyridine-3-carboxamide] | 6.00 to 7.00 | –

Row | Compound | pEC50 (Table A) | pEC50 (Table B)
18 | Cc1cccc2[nH]c(-c3cncc(C(=O)NCCO)c3N3CC[C@](C)(N)C3)nc12 [2-9, 4-[(3S)-3-amino-3-methylpyrrolidin-1-yl]-N-(2-hydroxyethyl)-5-(4-methyl-1H-1,3-benzodiazol-2-yl)pyridine-3-carboxamide] | 6.00 to 7.00 | –
19 | Cc1cccc2[nH]c(-c3cncc(C(=O)N4CCC(F)(F)C4)c3N3CC[C@](C)(N)C3)nc12 [2-25, (3S)-1-[3-(3,3-difluoropyrrolidine-1-carbonyl)-5-(4-methyl-1H-1,3-benzodiazol-2-yl)pyridin-4-yl]-3-methylpyrrolidin-3-amine] | 7.00 to 8.00 | –
20 | C[C@]1(N)CCN(c2c(C(=O)NC3CCCC3)ccnc2-c2cc(F)cc(F)c2)C1 [3-8, 3-[(3S)-3-amino-3-methylpyrrolidin-1-yl]-N-cyclopentyl-2-(3,5-difluorophenyl)pyridine-4-carboxamide] | 7.00 to 8.00 | –
21 | C[C@@H](NC(=O)c1cncc(-c2cc(F)cc(F)c2)c1N1CC[C@](C)(N)C1)C(F)(F)F [1-53, 4-[(3S)-3-amino-3-methylpyrrolidin-1-yl]-5-(3,5-difluorophenyl)-N-[(2R)-1,1,1-trifluoropropan-2-yl]pyridine-3-carboxamide] | > 8.00 | –
22 | C[C@H](NC(=O)c1cnc(C#N)c(-c2cc(F)cc(Cl)c2)c1N1C[C@H](N)[C@@H](F)C1)C1CC1 (single isomer, unassigned) [1-139] | > 8.00 | –
23 | C[C@H](NC(=O)c1cncc(-c2cc(F)cc(OC(F)F)c2)c1N1CC[C@](C)(N)C1)C1CC1 [1-143, 4-[(3S)-3-amino-3-methylpyrrolidin-1-yl]-N-[(1S)-1-cyclopropylethyl]-5-[3-(difluoromethoxy)-5-fluorophenyl]pyridine-3-carboxamide] | > 8.00 | –
24 | Cc1cccc2[nH]c(-c3cncc(C(=O)NCC4CCC4)c3N3CC[C@](C)(N)C3)nc12 [2-31, 4-[(3S)-3-amino-3-methylpyrrolidin-1-yl]-N-(cyclobutylmethyl)-5-(4-methyl-1H-1,3-benzodiazol-2-yl)pyridine-3-carboxamide] | > 8.00 | –
25 | C[C@H](NC(=O)c1cnc(C#N)c(-c2cc(F)cc(Cl)c2)c1N1C[C@@H](N)[C@H](F)C1)C1CC1 [1-138, 4-[(3R,4R)-3-amino-4-fluoropyrrolidin-1-yl]-5-(3-chloro-5-fluorophenyl)-6-cyano-N-[(1S)-1-cyclopropylethyl]pyridine-3-carboxamide] | > 8.00 | –
26 | C[C@]1(N)CCN(c2c(C(=O)NC3CCCOC3)cnc(C#N)c2-c2cc(F)cc(F)c2)C1 (stereo partly drawn) [1-89, 4-[(3S)-3-amino-3-methylpyrrolidin-1-yl]-6-cyano-5-(3,5-difluorophenyl)-N-(oxan-3-yl)pyridine-3-carboxamide] | > 8.00 | –
27 | COc1ncc(C(=O)N2CCCC(F)(F)C2)c(N2CC[C@H](N)C2)c1-c1cc(F)cc(F)c1 [1-237, (3S)-1-[3-(3,5-difluorophenyl)-5-(3,3-difluoropiperidine-1-carbonyl)-2-methoxypyridin-4-yl]pyrrolidin-3-amine] | < 6.00 | –
28 | C[C@H](NC(=O)c1cnc(C#N)c(-c2cc(F)cc(F)c2)c1N1CC[C@H](N)C1)c1ccccc1 [1-97, 4-[(3S)-3-aminopyrrolidin-1-yl]-6-cyano-5-(3,5-difluorophenyl)-N-[(1S)-1-phenylethyl]pyridine-3-carboxamide] | > 8.00 | –
29 | C[C@]1(N)CCN(c2c(C(=O)NC3CCOCC3)cnc(C#N)c2-c2cc(F)cc(F)c2)C1 [1-88, 4-[(3S)-3-amino-3-methylpyrrolidin-1-yl]-6-cyano-5-(3,5-difluorophenyl)-N-(oxan-4-yl)pyridine-3-carboxamide] | > 8.00 | –
30 | C[C@]1(N)CCN(c2c(C(=O)N[C@@H]3CCCC[C@@H]3F)cncc2-c2cc(F)cc(F)c2)C1 (mixture of isomers) [1-83, 4-[(3S)-3-amino-3-methylpyrrolidin-1-yl]-5-(3,5-difluorophenyl)-N-[cis-2-fluorocyclohexyl]pyridine-3-carboxamide] | > 8.00 | –
31 | N#Cc1ncc(C(=O)NC23CC(C2)C3)c(N2C[C@H](N)[C@@H](F)C2)c1-c1cc(F)cc(F)c1 (single isomer, unassigned) [1-102] | 7.00 to 8.00 | –
32 | COc1ncc(C(=O)N[C@@H](C)C(F)(F)F)c(N2CC[C@](C)(N)C2)c1-c1cc(F)cc(F)c1 [1-140, 4-[(3S)-3-amino-3-methylpyrrolidin-1-yl]-5-(3,5-difluorophenyl)-6-methoxy-N-[(2S)-1,1,1-trifluoropropan-2-yl]pyridine-3-carboxamide] | > 8.00 | –
33 | COc1ncc(C(=O)N[C@@H](C)c2ccccn2)c(N2CC[C@](C)(N)C2)c1-c1cc(F)cc(OC(F)F)c1 [1-241, 4-[(3S)-3-amino-3-methylpyrrolidin-1-yl]-5-[3-(difluoromethoxy)-5-fluorophenyl]-6-methoxy-N-[(1S)-1-(pyridin-2-yl)ethyl]pyridine-3-carboxamide] | 7.00 to 8.00 | 7.00 to 8.00
34 | C[C@H](NC(=O)c1ccnc(-c2cc(F)cc(F)c2)c1N1CC[C@](C)(N)C1)C1CC1 [3-1, 3-[(3S)-3-amino-3-methylpyrrolidin-1-yl]-N-[(1S)-1-cyclopropylethyl]-2-(3,5-difluorophenyl)pyridine-4-carboxamide] | 7.00 to 8.00 | –

Reference: patent US12600709B2, “Nonpeptide somatostatin type 5 receptor agonists and uses thereof” (Crinetics Pharmaceuticals, Inc., priority 2019, dated 2026)
